Assay results as given in ChEMBL document CHEMBL5523677, “Discovery of ASP6918, a KRAS G12C inhibitor: Synthesis and structure-activity relationships of 1-{2,7-diazaspiro[3.5]non-2-yl}prop-2-en-1-one derivatives as covalent inhibitors with good potency and oral activity for the treatment of solid tumors” (Bioorg Med Chem, 2024).
Values belong to the molecule of their own block, whether it stands above or below them.

How the values were obtained:
[1] = Inhibition of ERK phosphorylation in KRAS-G12C mutant positive human NCI-H1373 cells incubated for 2 hrs by ELISA; format: cell-based
[2] = Inhibition of biotinylated GDP-bound Avi-tagged KRAS G12C mutant (1 to 185 residues)/SOS/GST-tagged c-Raf (unknown origin) complex formation incubated for 1 hr in presence of GTP by fluorescence based analysis; set-up: species or system Homo sapiens
[3] = Inhibition of ERK phosphorylation in human A-375 cells harboring wild type KRAS and mutant BRAF incubated for 2 hrs by ELISA; format: cell-based; conditions: A-375, 2 h
[4] = Aqueous solubility of compound in Japanese Pharmacopoeia 2nd fluid at pH 6.8 at 130 umol/L incubated for 20 hrs by liquid chromatography; format: physicochemical; conditions: dose 130 µmol/L
NCI-H1373 [5] = test: Cytotoxicity against KRAS G12C mutant positive human NCI-H1373 cells assessed as inhibition of cell growth incubated for 6 days by Celltiter-Glo 2.0 assay; format: functional, cell-based
[6] = Metabolic stability in mouse liver microsomes assessed as intrinsic clearance at 0.1 to 0.2 micromol/L incubated for 30 mins in presence of NADPH-generating system by LC-MS/MS analysis; format: ADME, Microsome; conditions: dose 0.1-0.2 µmol/L, read-out: CLH
[7] = Lipophilicity, LogD of compound in 1-Octanol/PBS at pH 7.4 by LC-MS analysis; format: physicochemical
[8] = In vivo inhibition of ERK phosphorylation in male nude mouse xenografted with KRAS G12C mutant positive human NCI-H1373 cells assessed as reduction in pERK level in tumor at 60 mg/kg, po administered as single dose and measured after 6 hrs relative to control; format: functional
[9] = Metabolic stability in human liver microsomes assessed as intrinsic clearance at 0.1 to 0.2 micromol/L incubated for 30 mins in presence of NADPH-generating system by LC-MS/MS analysis; format: ADME, Microsome; conditions: dose 0.1-0.2 µmol/L, read-out: CLH
NCI-H1373 [10] = test: Antitumor activity against KRAS G12C-positive human NCI-H1373 cells xenografted in male nude mouse assessed as tumor regression at 40 mg/kg, po administered once daily for 13 days and measured on day 14 relative to control; format: functional; conditions: time 14 day
[11] = Drug concentration in tumor of male nude mouse xenografted with KRAS G12C mutant positive human NCI-H1373 cells at 60 mg/kg, po administered as single dose and measured after 6 hrs; format: ADME, organism-based, Neoplasm; conditions: read-out: Ct
NCI-H1373 [12] = test: Antitumor activity against KRAS G12C-positive human NCI-H1373 cells xenografted in male nude mouse assessed as inhibition of tumor growth at 60 mg/kg, po administered once daily for 13 days and measured on day 14 relative to control; format: functional; conditions: NCI-H1373, 336 h, time 14 day, read-out: TGI
[13] = In vivo inhibition of ERK phosphorylation in male nude mouse xenografted with KRAS G12C mutant positive human NCI-H1373 cells assessed as reduction in pERK level in tumor at 3 mg/kg, sc administered as single dose and measured after 6 hrs relative to control; format: functional
[14] = In vivo inhibition of ERK phosphorylation in male nude mouse xenografted with KRAS G12C mutant positive human NCI-H1373 cells assessed as reduction in pERK level in tumor at 20 mg/kg, po administered as single dose and measured after 6 hrs relative to control; format: functional
NCI-H1373 [15] = test: Antitumor activity against KRAS G12C mutant positive human NCI-H1373 cells xenografted in male nude mouse assessed as inhibition of tumor growth at 10 mg/kg, sc administered once daily for 13 days and measured on day 14 relative to control; format: functional; conditions: NCI-H1373, 336 h, time 14 day, read-out: TGI
[16] = Drug concentration in tumor of male nude mouse xenografted with KRAS G12C mutant positive human NCI-H1373 cells at 20 mg/kg, po administered as single dose and measured after 6 hrs; format: ADME, organism-based, Neoplasm; conditions: read-out: Ct
NCI-H1373 [17] = test: Antitumor activity against KRAS G12C-positive human NCI-H1373 cells xenografted in male nude mouse assessed as tumor regression at 60 mg/kg, po administered once daily for 13 days and measured on day 14 relative to control; format: functional; conditions: time 14 day
NCI-H1373 [18] = test: Antitumor activity against KRAS G12C mutant positive human NCI-H1373 cells xenografted in male nude mouse assessed as tumor regression at 10 mg/kg, sc administered once daily for 13 days and measured on day 14 relative to control; format: functional; conditions: time 14 day
[19] = Drug concentration in plasma of male nude mouse xenografted with KRAS G12C mutant positive human NCI-H1373 cells at 40 mg/kg, po administered as single dose and measured after 6 hrs; format: ADME, organism-based
NCI-H1373 [20] = test: Antitumor activity against KRAS G12C-positive human NCI-H1373 cells xenografted in male nude mouse assessed as inhibition of tumor growth at 20 mg/kg, po administered once daily for 13 days and measured on day 14 relative to control; format: functional; conditions: NCI-H1373, 336 h, time 14 day, read-out: TGI
NCI-H1373 [21] = test: Antitumor activity against KRAS G12C-positive human NCI-H1373 cells xenografted in male nude mouse assessed as inhibition of tumor growth at 40 mg/kg, po administered once daily for 13 days and measured on day 14 relative to control; format: functional; conditions: NCI-H1373, 336 h, time 14 day, read-out: TGI
[22] = Toxicity in male nude mouse xenografted with KRAS G12C-positive human NCI-H1373 cells assessed as reduction in body weight at 10 to 60 mg/kg, po administered once daily for 13 days; format: organism-based; conditions: in vivo, 312 h, dose 10-60 mg/kg, time 13 day
[23] = Drug concentration in plasma of male nude mouse xenografted with KRAS G12C mutant positive human NCI-H1373 cells at 60 mg/kg, po administered as single dose and measured after 6 hrs; format: ADME, organism-based
[24] = In vivo inhibition of ERK phosphorylation in male nude mouse xenografted with KRAS G12C mutant positive human NCI-H1373 cells assessed as reduction in pERK level in tumor at 40 mg/kg, po administered as single dose and measured after 6 hrs relative to control; format: functional
NCI-H1373 [25] = test: Antitumor activity against KRAS G12C-positive human NCI-H1373 cells xenografted in male nude mouse assessed as inhibition of tumor growth at 10 mg/kg, po administered once daily for 13 days and measured on day 14 relative to control; format: functional; conditions: NCI-H1373, 336 h, time 14 day, read-out: TGI
NCI-H1373 [26] = test: Antitumor activity against KRAS G12C mutant positive human NCI-H1373 cells xenografted in male nude mouse assessed as inhibition of tumor growth at 3 mg/kg, sc administered once daily for 13 days and measured on day 14 relative to control; format: functional; conditions: NCI-H1373, 336 h, time 14 day, read-out: TGI
[27] = Drug concentration in plasma of male nude mouse xenografted with KRAS G12C mutant positive human NCI-H1373 cells at 3 mg/kg, sc administered as single dose and measured after 6 hrs; format: ADME, organism-based
[28] = Drug concentration in plasma of male nude mouse xenografted with KRAS G12C mutant positive human NCI-H1373 cells at 20 mg/kg, po administered as single dose and measured after 6 hrs; format: ADME, organism-based
[29] = Drug concentration in tumor of male nude mouse xenografted with KRAS G12C mutant positive human NCI-H1373 cells at 40 mg/kg, po administered as single dose and measured after 6 hrs; format: ADME, organism-based, Neoplasm; conditions: read-out: Ct
[30] = Drug concentration in tumor of male nude mouse xenografted with KRAS G12C mutant positive human NCI-H1373 cells at 3 mg/kg, sc administered as single dose and measured after 6 hrs; format: ADME, organism-based, Neoplasm; conditions: read-out: Ct

IC50 ([1]; Homo sapiens, NCI-H1373, 2 h): 160 nM
IC50 [2]: 59 nM
SMILES: C=CC(=O)N1CC2(CCN(c3nc(OC4CCN(CC)CC4)nc4c(F)c(-c5c(C)ccc6[nH]ncc56)c(CC)cc34)CC2)C1

IC50 ([1]; Homo sapiens, NCI-H1373, 2 h): 37 nM
IC50 [2]: 41 nM
SMILES: C=CC(=O)N1CC2(CCN(c3nc(OC4CCN(CC)CC4)nc4c(F)c(-c5c(C)ccc6[nH]ncc56)c(C=C)cc34)CC2)C1

IC50 ([1]; Homo sapiens, NCI-H1373, 2 h): 140 nM
IC50 [2]: 100 nM
SMILES: C=CC(=O)N1CC2(CCN(c3nc(OC4CCN(CC)CC4)nc4c(F)c(-c5c(C)ccc6[nH]ncc56)c(C(=C)C)cc34)CC2)C1

IC50 ([1]; Homo sapiens, NCI-H1373, 2 h): 120 nM
IC50 [2]: 56 nM
SMILES: C#Cc1cc2c(N3CCC4(CC3)CN(C(=O)C=C)C4)nc(OC3CCN(CC)CC3)nc2c(F)c1-c1c(C)ccc2[nH]ncc12

IC50 [2]: 280 nM
SMILES: C=CC(=O)N1CC2(CCN(c3nc(OC4CCN(CC)CC4)nc4c(C#N)c(-c5c(C)ccc6[nH]ncc56)c(Cl)cc34)CC2)C1

IC50 ([1]; Homo sapiens, NCI-H1373, 2 h): 49 nM
IC50 [2]: 50 nM
SMILES: C=CC(=O)N1CC2(CCN(c3nc(OC4CCN(CC)CC4)nc4c(OCC)c(-c5c(C)ccc6[nH]ncc56)c(Cl)cc34)CC2)C1

IC50 [3]: > 10 µM
solubility at 20 h, 130 µM [4]: > 100 µM
IC50 ([1]; Homo sapiens, NCI-H1373, 2 h): 5 nM
CLint scaled [6]: 342 mL/min/kg
logD [7]: > 4.3
SMILES: C=CC(=O)N1CC2(CCN(c3nc(OC4CCN(C)CC4)nc4c(OC5CCC5)c(-c5c(C)ccc6[nH]ncc56)c(C=C)cc34)CC2)C1
IC50 (NCI-H1373 [5]; Homo sapiens, NCI-H1373, 144 h): 12 nM

IC50 [2]: > 1000 nM
SMILES: C=CC(=O)N1CC2(CCN(c3nc(OC4CCN(CC)CC4)nc4c(F)c(-c5c(C)ccc6[nH]ncc56)c(-c5ccccc5)cc34)CC2)C1

IC50 [3]: > 10 µM
IC50 ([1]; Homo sapiens, NCI-H1373, 2 h): 39 nM
logD [7]: 3.2
SMILES: C=CC(=O)N1CC2(CCN(c3nc(OC4CCN(C)CC4)nc4c(OC)c(-c5c(C)ccc6[nH]ncc56)c(C=C)cc34)CC2)C1
IC50 (NCI-H1373 [5]; Homo sapiens, NCI-H1373, 144 h): 52 nM

IC50 [2]: 250 nM
SMILES: C=CC(=O)N1CC2(CCN(c3nc(OC4CCN(CC)CC4)nc4cc(-c5c(C)ccc6[nH]ncc56)c(Cl)cc34)CC2)C1

IC50 ([1]; Homo sapiens, NCI-H1373, 2 h): 35 nM
IC50 [2]: 57 nM
SMILES: C=CC(=O)N1CC2(CCN(c3nc(OC4CCN(CC)CC4)nc4c(OC5CCC5)c(-c5c(C)ccc6[nH]ncc56)c(Cl)cc34)CC2)C1

IC50 ([1]; Homo sapiens, NCI-H1373, 2 h): 75 nM
IC50 [2]: 46 nM
SMILES: C=CC(=O)N1CC2(CCN(c3nc(OC4CCN(CC)CC4)nc4c(OC)c(-c5c(C)ccc6[nH]ncc56)c(Cl)cc34)CC2)C1

IC50 [3]: > 10 µM
solubility at 20 h, 130 µM [4]: > 100 µM
IC50 ([1]; Homo sapiens, NCI-H1373, 2 h): 96 nM
CLint scaled [6]: 115 mL/min/kg
logD [7]: 3.3
SMILES: C=CC(=O)N1CC2(CCN(c3nc(OC4CCN(C)CC4)nc4c(Cl)c(-c5c(C)ccc6[nH]ncc56)c(F)cc34)CC2)C1
IC50 (NCI-H1373 [5]; Homo sapiens, NCI-H1373, 144 h): 100 nM

CLint scaled [9]: 130 mL/min/kg
IC50 [3]: > 10 µM
concentration at 6 h [11]: 81 nM
solubility at 20 h, 130 µM [4]: > 100 µM
concentration at 6 h [16]: 7 nM
IC50 ([1]; Homo sapiens, NCI-H1373, 2 h): 5 nM
IC50 ([1]; nci-h1373): 4 nM
concentration at 6 h [19]: 120 nM
concentration at 6 h [23]: 110 nM
concentration at 6 h [27]: 280 nM
concentration at 6 h [28]: 21 nM
concentration at 6 h [29]: 50 nM
CLint scaled [6]: 119 mL/min/kg
logD [7]: 3.7
concentration at 6 h [30]: 170 nM
SMILES: C=CC(=O)N1CC2(CCN(c3nc(OC4CCN(C)CC4)nc4c(OCC)c(-c5c(C)ccc6[nH]ncc56)c(C=C)cc34)CC2)C1
inhibition in vivo at 60 mg/kg [8]: 80%
Activity (NCI-H1373 [10]): 49%
inhibition in vivo at 60 mg/kg (NCI-H1373 [12]): > 100%
inhibition in vivo at 3 mg/kg [13]: 72%
inhibition in vivo at 20 mg/kg [14]: 38%
inhibition in vivo at 10 mg/kg (NCI-H1373 [15]): > 100%
Activity (NCI-H1373 [17]): 73%
Activity (NCI-H1373 [18]): 73%
inhibition in vivo at 20 mg/kg (NCI-H1373 [20]): 68%
inhibition in vivo at 40 mg/kg (NCI-H1373 [21]): > 100%
Activity [22]: Non-Toxic
IC50 (NCI-H1373 [5]; Homo sapiens, NCI-H1373, 144 h): 8 nM
IC50 (NCI-H1373 [5]; nci-h1373): 6 nM
inhibition in vivo at 40 mg/kg [24]: 72%
inhibition in vivo at 10 mg/kg (NCI-H1373 [25]): 27%
inhibition in vivo at 3 mg/kg (NCI-H1373 [26]): 82%

IC50 ([1]; Homo sapiens, NCI-H1373, 2 h): 31 nM
IC50 [2]: 51 nM
SMILES: C=CC(=O)N1CC2(CCN(c3nc(OC4CCN(CC)CC4)nc4c(F)c(-c5c(C)ccc6[nH]ncc56)c(C5CC5)cc34)CC2)C1

IC50 ([1]; Homo sapiens, NCI-H1373, 2 h): 35 nM
IC50 [2]: 56 nM
SMILES: C=CC(=O)N1CC2(CCN(c3nc(OC4CCN(CC)CC4)nc4c(OC5CC5)c(-c5c(C)ccc6[nH]ncc56)c(Cl)cc34)CC2)C1
